Our source for the IC50 values is patent publication US20140018361A1, “IRAK INHIBITORS AND USES THEREOF” (Nimbus Iris, Inc., priority 2012, published 2014).

Structures can show the parent of a compound that is named as a salt.

The target in the assay is T1, IRAK4 (Homo sapiens, UniProt Q9NWZ3).
T1 construct: purchased CARNA Bioscience 09-145
T1 sequence (Q9NWZ3 1-460): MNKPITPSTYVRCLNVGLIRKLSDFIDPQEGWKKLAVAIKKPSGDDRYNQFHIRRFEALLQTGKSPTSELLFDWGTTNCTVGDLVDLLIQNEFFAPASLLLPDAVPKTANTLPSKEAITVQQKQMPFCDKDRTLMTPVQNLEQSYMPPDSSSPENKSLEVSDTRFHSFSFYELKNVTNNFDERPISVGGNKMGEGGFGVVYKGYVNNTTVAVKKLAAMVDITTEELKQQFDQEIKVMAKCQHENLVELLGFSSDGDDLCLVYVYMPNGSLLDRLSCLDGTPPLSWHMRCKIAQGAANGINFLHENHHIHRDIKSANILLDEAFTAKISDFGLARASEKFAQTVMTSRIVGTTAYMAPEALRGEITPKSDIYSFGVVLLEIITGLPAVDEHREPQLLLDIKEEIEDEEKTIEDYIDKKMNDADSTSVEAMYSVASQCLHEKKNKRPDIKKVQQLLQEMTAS
The experiment in a line: IRAK-4 activity inhibition assay (Caliper). The class given is biochemical. The following applies: 3.5 nM IRAK4, 1.5 μM Peptide 8, 37 μM ATP, 28° C., 40 minutes. How it is done:
A 1× kinase base buffer was prepared from 50 mM HEPES, pH 7.5 and 0.0015% Brij-35. A stop buffer was prepared from 100 mM HEPES, pH 7.5, 0.015% Brij-35, 0.2% Coating Reagent #3, and 50 mM EDTA.
Test compound was diluted to 50× of the final desired highest inhibitor concentration in reaction by 100% DMSO. 100 ul of this compound dilution was transferred to a well in a 96-well plate.
Test compound was serially diluted by transferring 30 μl to 60 μl of 100% DMSO in the next well and so forth for a total of 10 concentrations. 100 μl of 100% DMSO was added to two empty wells for no compound control and no enzyme control in the same 96-well plate.
A new 96-well plate was marked as intermediate plate. 5 μl of compound serial dilution was transferred from source plate to the corresponding wells of the intermediate plate. 45 μl of 1× kinase base buffer (KB buffer) was added to each well of the intermediate plate. The intermediate plate was placed for 10 min on a shaker.
5 μl of each well was transferred from the 96-well intermediate plate to a 384-well plate in duplicates. For example, A1 of the 96-well plate is transferred to A1 and A2 of the 384-well plate. A2 of the 96-well plate is transferred to A3 and A4 of the 384-well plate, and so on.
IRAK4 and DTT in 1× kinase base buffer was added. The 2.5× enzyme mix contained 8.8 nM IRAK4 and 5 mM DTT.
Peptide 8, ATP, MgCl2 and MnCl2 were added in the 1× kinase base buffer. The 2.5× peptide mix contained 3.75 μM peptide 8, 92.5 μM ATP, 12.5 mM MgCl2 and 2.5 mM MnCl2.
Assay plate already contained 5 μl of compound in 10% DMSO. Added 10 μl of 2.5× enzyme solution to each well of the 384-well assay plate, except no enzyme control wells. The final concentration of IRAK4 in reaction was 3.5 nM. Added 10 μl of 1× kinase base buffer to no enzyme control wells in the assay plate. Incubated at room temperature for 10 min.
Added 10 μl of 2.5× peptide solution to each well of the 384-well assay plate. The final concentration of Peptide 8 and ATP was 1.5 μM and 37 μM, respectively. Incubated at 28° C. for 40 minutes. Added 25 μl of stop buffer to stop reaction. Collected data on Caliper.
Copied conversion % data from Caliper program. Converted conversion % values to percent inhibition values. Percent inhibition=(max−conversion %)/(max−min)*100, where “max” means the conversion % of DMSO control and “min” means the conversion % of no enzyme control.
What is called IC50 is the point on the concentration scale where inhibition reaches its midpoint. A lower IC50 goes with inhibition by little substance. The molecule `CN(C)[C@H]1CC[C@H](Nc2ncnc3occc23)CC1` [Compound I-12, N^1-(furo[2,3-d]pyrimidin-4-yl)-trans-N^4,N^4-dimethylcyclohexane-1,4-diamine formate] came in with an IC50 not below 10000 nM.
In turn, `c1nc(O[C@H]2CC[C@H](N3CCOCC3)CC2)c2ccoc2n1` [Compound I-13, 4-(((trans)-4-morpholinocyclohexyl)oxy)furo[2,3-d]pyrimidine] showed a half-maximal inhibitory concentration (IC50) not below 10000 nM.
For `N[C@H]1CC[C@H](Nc2ncnc3oc4c(c23)CCC4)CC1` [Compound I-11, N^1-(6,7-dihydro-5H-cyclopenta[4,5]furo[2,3-d]pyrimidin-4-yl)-trans-cyclohexane-1,4-diamine] the value was not below 10000 nM; for `CN(C)[C@H]1CC[C@H](Nc2nc(Nc3ccccc3)nc3[nH]ccc23)CC1` [Compound I-2, 4-N-[4-(dimethylamino)cyclohexyl]-2-N-phenyl-7H-pyrrolo[2,3-d]pyrimidine-2,4-diamine], 100 to 1000 nM.
Then `Fc1c[nH]c2ncnc(O[C@H]3CC[C@H](N4CCOCC4)CC3)c12` [Compound I-6, 4-((trans)-4-((5-fluoro-7H-pyrrolo[2,3-d]pyrimidin-4-yl)oxy)cyclohexyl)morpholine], with 1000 to 10000 nM.
On to `CN(C)[C@H]1CC[C@H](Nc2nc(N)nc3[nH]ccc23)CC1` [Compound I-8, 4-N-[4-(dimethylamino)cyclohexyl]-7H-pyrrolo[2,3-d]pyrimidine-2,4-diamine], for which the half-inhibitory concentration (IC50) is not below 10000 nM.
Turning to `CN(C)[C@H]1CC[C@H](Oc2ncnc3[nH]cc(C#N)c23)CC1` [Compound I-5, 4-[[4-(dimethylamino)cyclohexyl]oxy]-7H-pyrrolo[2,3-d]pyrimidine-5-carbonitrile], the IC50 is 1000 to 10000 nM.
Molecule `CN(C)[C@H]1CC[C@H](Nc2ncnc3oc4c(c23)CCC4)CC1` [Compound I-10, N,N-dimethyl-4-N-[7-oxa-9,11-diazatricyclo[6.4.0.0[2,6]]dodeca-1(12),2(6),8,10-tetraen-12-yl]-trans-cyclohexane-1,4-diamine] came in with a half-inhibitory concentration (IC50) of 1000 to 10000 nM.
`N#Cc1c[nH]c2ncnc(O[C@H]3CC[C@H](N4CCOCC4)CC3)c12` [Compound I-7, 4-(trans-(4-morpholinocyclohexyl)oxy)-7H-pyrrolo[2,3-d]pyrimidine-5-carbonitrile]: the IC50 was in the range of 1000 to 10000 nM.
As to `CN(C)[C@H]1CC[C@H](Oc2ncnc3[nH]cc(F)c23)CC1` [Compound I-4, (trans)-4-((5-fluoro-7H-pyrrolo[2,3-d]pyrimidin-4-yl)oxy)-N,N-dimethylcyclohexanamine], the 50% inhibitory concentration (IC50) was in the range of 1000 to 10000 nM.
The molecule `CN(C)[C@H]1CC[C@H](Nc2ncnc3[nH]cc(F)c23)CC1` [Compound I-3, (trans)-N^1-(5-fluoro-7H-pyrrolo[2,3-d]pyrimidin-4-yl)-N^4,N^4-dimethylcyclohexane-1,4-diamine] returned an IC50 of 100 to 1000 nM.
With `CN(C)[C@H]1CC[C@H](Oc2ncnc3occc23)CC1` [Compound I-14, trans-4-(furo[2,3-d]pyrimidin-4-yloxy)-N,N-dimethylcyclohexanamine formate], the IC50 was not below 10000 nM.
As for `CN(C)[C@H]1CC[C@H](Nc2ncnc3[nH]cc(C#N)c23)CC1` [Compound I-1, 4-[[4-(dimethylamino)cyclohexyl]amino]-7H-pyrrolo[2,3-d]pyrimidine-5-carbonitrile], the IC50 is 100 to 1000 nM.
